These results are taken from article PMC4066871 (Bioorganic & medicinal chemistry letters, 2013).

Data set [1] deals with T1, GIRK1/GIRK4 (Homo sapiens, UniProt P48544+P48549).
T1 sequence (P48549 1-501): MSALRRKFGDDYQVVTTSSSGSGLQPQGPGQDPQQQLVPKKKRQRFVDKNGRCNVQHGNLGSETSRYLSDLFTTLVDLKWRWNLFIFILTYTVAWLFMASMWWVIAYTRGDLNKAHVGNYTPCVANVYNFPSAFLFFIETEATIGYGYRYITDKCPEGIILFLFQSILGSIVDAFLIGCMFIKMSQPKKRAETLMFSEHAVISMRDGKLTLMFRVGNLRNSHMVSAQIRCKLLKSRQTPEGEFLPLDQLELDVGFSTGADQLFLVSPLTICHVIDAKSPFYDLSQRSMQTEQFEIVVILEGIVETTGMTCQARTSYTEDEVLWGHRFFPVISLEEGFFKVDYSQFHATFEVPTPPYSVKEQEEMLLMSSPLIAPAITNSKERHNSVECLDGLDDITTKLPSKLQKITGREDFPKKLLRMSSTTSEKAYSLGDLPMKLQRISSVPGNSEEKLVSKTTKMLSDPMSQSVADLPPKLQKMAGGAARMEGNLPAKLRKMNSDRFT
T1 sequence (P48544 1-419): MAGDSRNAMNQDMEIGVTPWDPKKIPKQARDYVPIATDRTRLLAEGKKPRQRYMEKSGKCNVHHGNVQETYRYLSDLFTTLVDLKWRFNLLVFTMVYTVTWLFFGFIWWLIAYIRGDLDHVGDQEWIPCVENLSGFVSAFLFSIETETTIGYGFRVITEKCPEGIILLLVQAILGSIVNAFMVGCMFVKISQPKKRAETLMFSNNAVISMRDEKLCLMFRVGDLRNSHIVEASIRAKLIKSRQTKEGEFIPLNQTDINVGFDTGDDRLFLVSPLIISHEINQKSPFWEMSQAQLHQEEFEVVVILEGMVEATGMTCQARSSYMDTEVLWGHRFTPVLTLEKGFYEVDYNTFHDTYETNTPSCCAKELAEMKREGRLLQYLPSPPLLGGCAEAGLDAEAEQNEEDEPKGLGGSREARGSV
The experiment in a line: GIRK1/4 thallium flux assay in stably transfected HEK-293 cells. It is filed as cell-based.

A further data set concerns GIRK. The note with it: cited from earlier work.
The target in another data set is T2, GIRK1/GIRK2 (Homo sapiens, UniProt P48051+P48549).
T2 sequence (P48549 1-501): T1 sequence (P48549 1-501)
T2 sequence (P48051 1-423): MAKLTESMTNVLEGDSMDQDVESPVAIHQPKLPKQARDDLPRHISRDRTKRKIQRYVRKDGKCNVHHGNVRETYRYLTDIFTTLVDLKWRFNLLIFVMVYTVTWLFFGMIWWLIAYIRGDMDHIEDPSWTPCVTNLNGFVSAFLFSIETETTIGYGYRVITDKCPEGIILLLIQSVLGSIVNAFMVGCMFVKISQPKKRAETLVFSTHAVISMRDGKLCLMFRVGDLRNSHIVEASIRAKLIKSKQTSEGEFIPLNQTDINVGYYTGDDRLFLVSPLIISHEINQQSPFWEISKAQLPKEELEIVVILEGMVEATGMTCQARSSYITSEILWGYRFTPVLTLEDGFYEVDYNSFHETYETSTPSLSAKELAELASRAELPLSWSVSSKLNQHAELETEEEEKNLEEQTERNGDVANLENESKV
Description: GIRK1/2 thallium flux assay in stably transfected HEK-293 cells. Type of data set: cell-based.

The subject of a further data set is GIRK1/2. The note with it: cited from earlier work.
Data set [2] addresses T1, GIRK1/GIRK4. The note with it: GIRK1/2 activator vs GIRK1/4; cited from earlier work.
In the next data set the test system is other K+ channels. The note with it: cited from earlier work.
Another data set relates to GIRK2/3. To be noted: cited from earlier work.

In the case of `O=C(Cc1ccccc1Cl)Nc1ccc(C(F)(F)F)cc1` [Compd 8h], the “GIRK1/4 activity (in words)” value on GIRK1/GIRK4 [1] is “selective, partial GIRK1/4 activators”.
On to `C[C@@H]1O[C@@H](O[C@H]2[C@H](Oc3cc(O)c4c(c3)O[C@H](c3ccc(O)cc3)CC4=O)O[C@H](CO)[C@@H](O)[C@@H]2O)[C@H](O)[C@H](O)[C@H]1O` [naringin], for which the EC50 in the data set with GIRK (read-out: GIRK activation EC50, reported value) is > 100 µM.
As for `CN(C)S(=O)(=O)c1cccc(NC(=O)Cc2ccc(Cl)cc2)c1` [Compd 3c], the “GIRK1/4 activity (in words)” value on GIRK1/GIRK4 [1] is on record as “diminution in potency”. Also, on GIRK1/GIRK2, the “GIRK1/2 activity (in words)” value was “diminution in potency”.
For `CCO` [ethanol], in the data set on GIRK, the “Concentration known to activate GIRK” value is listed as “hundreds of millimolar”.
For the compound `Cc1ccc(NC(=O)Cc2ccc(F)cc2)cc1S(=O)(=O)N(C)C` [Compd 3d], the “GIRK1/4 activity (in words)” value on GIRK1/GIRK4 [1] is on record as “diminution in potency”. Also, the “GIRK1/2 activity (in words)” value on GIRK1/GIRK2 is recorded as “diminution in potency”.
In the case of `CN(C)S(=O)(=O)c1cccc(NC(=O)Cc2ccccc2Cl)c1` [Compd 3b], on GIRK1/GIRK4 [1], the “GIRK1/4 activity (in words)” value was “maintained potency and efficacy”. Besides, on GIRK1/GIRK2, the “GIRK1/2 activity (in words)” value was “diminished potency and lost efficacy”.
As to `O=C(Cc1ccccc1Cl)Nc1cccc(Cl)c1` [Compd 8g], the “GIRK1/4 activity (in words)” value on GIRK1/GIRK4 [1] is given as “selective, partial GIRK1/4 activators”.
Consider `Cc1cc(NC(=O)Nc2ccc(F)c(F)c2)n(-c2ccccc2)n1` [Compd 2], for which the “CNS penetration (in words)” value with GIRK1/2 is given as “centrally penetrant”. In the data set on GIRK1/2 (mice, via GIRK1/2 activation), the “Anti-epileptic properties (in words)” value is reported as “established anti-epileptic properties in mice”. Also, the “Selectivity for GIRK1/2 vs GIRK1/4” value at GIRK1/GIRK4 [2] is ~ 10 fold. Moreover, the “Activity on other K+ channels (in words)” value in the data set on other K+ channels was “inactive”. For the same compound, in the data set with GIRK2/3, the “Activity on GIRK2/3 (in words)” value was “inactive”.

As usually defined, the EC50 is the concentration giving half of the maximal effect.
